pEC50, pIC50: −log10 of the molar value.
Experiments:
[1] = In Vitro Microsome Stability Assay (monkey); format: in vitro ADME; conditions: monkey, 30 min, NADPH
Outline: (§1)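 Species liver microsomes in potassium phosphate buffer were preincubated at 37 °C for 3–5 min with test compound (added from 0.25 mM DMSO stock), then started with NADPH. Samples at 0 and 30 min were quenched with acetonitrile containing internal standard and analysed by LC-MS/MS; % remaining at 30 min used analyte/IS AUC ratios relative to t=0.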

[2] = In Vitro Microsome Stability Assay (rat); format: in vitro ADME; conditions: rat, 30 min, NADPH
Outline: as §1

[3] = test system: PD1 signal sequence plus 10 amino acids fused to Gaussia Luciferase (PD1-ss+10aa/Gaussia Luciferase); assay: Dox Induced PD1-ss-Gluc Assay; format: cell-based; conditions: 24 hr, 293FRT/TO; read-out: 24 hr Dox Inducible PD1ssGluc 293FRT/TO: Mean IC50
Outline: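 Stable Flp-In 293 T-REx line expressing the fusion under tetracycline-inducible control, plated the day before assay. Compound dilutions added with doxycycline and incubated at 37 °C, 5% CO2; unspecified stereocentres mean data refer to stereoisomer mixtures.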

[4] = test system: multiple myeloma cell line U266B1; assay: U266 Cell Viability Assay; format: cell-based, human; conditions: Homo sapiens, U-266; 48 hr, U266; read-out: 48 hr U266 Viability Celltiter-Glo: Mean EC50
Outline: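 U266B1 myeloma cells in RPMI 1640 with 10% FBS were treated with compound dilutions for 48 h at 37° C, 5% CO2. Viability was read as CellTiter-Glo luminescence. Data for structures drawn without stereochemistry refer to stereoisomer mixtures.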

[5] = In Vitro Microsome Stability Assay (mouse); format: in vitro ADME; conditions: mouse, 30 min, NADPH
Outline: as §1

[6] = test system: multiple myeloma cell line NCl-H929; assay: H929 Cell Viability Assay; format: cell-based, human; conditions: Homo sapiens, NCI-H929, 48 h, H929, read-out: 48 hr H929 Viability Celltiter-Glo: Mean EC50
Outline: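 NCI-H929 myeloma cells in RPMI 1640 with 10% FBS were treated with compound dilutions for 48 h at 37 °C, and viability was then read by CellTiter-Glo luminescence. Compounds drawn without stereochemistry were tested as stereoisomer mixtures.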

[7] = test system: full length TNFα (amino acids 1-233) fused to Gaussia Luciferase; assay: Dox Induced TNFα-FL-Gluc Assay; format: cell-based; conditions: 24 hr, 293FRT/TO; read-out: 24 hr Dox Inducible TNFaFLGluc 293FRT/TO: Mean IC50
Outline: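 Stable Flp-In 293 T-REx line expressing doxycycline-inducible full-length TNFα fused to Gaussia luciferase; cells plated the day before, then treated with compound dilutions in doxycycline-containing medium at 37° C, 5% CO2. Unspecified stereocentres mean stereoisomer mixtures were tested.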

[8] = In Vitro Microsome Stability Assay (human); format: in vitro ADME; conditions: human, 30 min, NADPH
Outline: as §1

## CN(C)c1ccc(S(=O)(=O)N2CCCN(CC3CCCCC3)CCCN(S(=O)(=O)N3CCC(c4ccccc4)CC3)CC(O)C2)cc1 (stereo not shown) [A55, 9-(cyclohexylmethyl)-1-[4-(dimethylamino)benzenesulfonyl]-5-[(4-phenylpiperidin-1-yl)sulfonyl]-1,5,9-triazacyclododecan-3-ol]
[1]
  Liver Microsome Stability-% Left after 30 min w/ NADPH (%) Monkey: 0.34%
[2]
  Liver Microsome Stability-% Left after 30 min w/ NADPH (%) Rat: 0.97%
[3]
  pIC50: 5.81
[4]
  pEC50: < 4.60
[5]
  Liver Microsome Stability-% Left after 30 min w/ NADPH (%) Mouse: 1.18%
[6]
  pEC50: < 4.60
[7]
  pIC50: < 4.60
[8]
  Liver Microsome Stability-% Left after 30 min w/ NADPH (%) Human: 4.87%

## C=C1CN(S(=O)(=O)c2ccc(N(C)C)cc2F)CCCN(CC2CCCCC2)CCCN(S(=O)(=O)N2CCc3cc(Cl)ccc3C2)C1 [A56, 4-({5-[(6-chloro-1,2,3,4-tetrahydroisoquinolin-2-yl)sulfonyl]-9-(cyclohexylmethyl)-3-methylidene-1,5,9-triazacyclododecan-1-yl}sulfonyl)-3-fluoro-N,N-dimethylaniline]
[1]
  Liver Microsome Stability-% Left after 30 min w/ NADPH (%) Monkey: 42.6%
[2]
  Liver Microsome Stability-% Left after 30 min w/ NADPH (%) Rat: 57.3%
[3]
  pIC50: 7.48
[4]
  pEC50: < 4.60
[5]
  Liver Microsome Stability-% Left after 30 min w/ NADPH (%) Mouse: 53.2%
[6]
  pEC50: 5.79
[7]
  pIC50: 5.90
[8]
  Liver Microsome Stability-% Left after 30 min w/ NADPH (%) Human: 44.5%

## C=C1CN(S(=O)(=O)c2ccc(N(C)C)cc2)CCCN(CC2CCCCC2)CCCN(S(=O)(=O)N2CCC(c3ccccc3Cl)CC2)C1 [A57, 4-[(5-{[4-(2-chlorophenyl)piperidin-1-yl]sulfonyl}-9-(cyclohexylmethyl)-3-methylidene-1,5,9-triazacyclododecan-1-yl)sulfonyl]-N,N-dimethylaniline]
[1]
  Liver Microsome Stability-% Left after 30 min w/ NADPH (%) Monkey: 28.5%
[2]
  Liver Microsome Stability-% Left after 30 min w/ NADPH (%) Rat: 84%
[3]
  pIC50: 7.13
[4]
  pEC50: < 4.60
[5]
  Liver Microsome Stability-% Left after 30 min w/ NADPH (%) Mouse: 60.2%
[6]
  pEC50: < 4.60
[7]
  pIC50: 5.11
[8]
  Liver Microsome Stability-% Left after 30 min w/ NADPH (%) Human: 31.9%

## C=C1CN(S(=O)(=O)c2ccc(N(C)C)cc2)CCCN(CC2CCCCC2)CCCN(S(=O)(=O)N2CCC(c3cccc(Cl)c3)CC2)C1 [A58, 4-[(5-{[4-(3-chlorophenyl)piperidin-1-yl]sulfonyl}-9-(cyclohexylmethyl)-3-methylidene-1,5,9-triazacyclododecan-1-yl)sulfonyl]-N,N-dimethylaniline]
[1]
  Liver Microsome Stability-% Left after 30 min w/ NADPH (%) Monkey: 53.1%
[2]
  Liver Microsome Stability-% Left after 30 min w/ NADPH (%) Rat: 66.7%
[3]
  pIC50: 7.14
[4]
  pEC50: < 4.60
[5]
  Liver Microsome Stability-% Left after 30 min w/ NADPH (%) Mouse: 72.8%
[6]
  pEC50: < 4.60
[7]
  pIC50: 5.07
[8]
  Liver Microsome Stability-% Left after 30 min w/ NADPH (%) Human: 31.6%

## C=C1CN(S(=O)(=O)c2ccc(N(C)C)cc2)CCCN(CC2CCCCC2)CCCN(S(=O)(=O)N2CCc3cc(F)ccc3C2)C1 [A59, 4-{[9-(cyclohexylmethyl)-5-[(6-fluoro-1,2,3,4-tetrahydroisoquinolin-2-yl)sulfonyl]-3-methylidene-1,5,9-triazacyclododecan-1-yl]sulfonyl}-N,N-dimethylaniline]
[1]
  Liver Microsome Stability-% Left after 30 min w/ NADPH (%) Monkey: 1.94%
[2]
  Liver Microsome Stability-% Left after 30 min w/ NADPH (%) Rat: 3.9%
[3]
  pIC50: 7.62
[4]
  pEC50: < 4.60
[5]
  Liver Microsome Stability-% Left after 30 min w/ NADPH (%) Mouse: 3.73%
[6]
  pEC50: 5.84
[7]
  pIC50: 6.21
[8]
  Liver Microsome Stability-% Left after 30 min w/ NADPH (%) Human: 1.89%

## C=C1CN(S(=O)(=O)c2ccc(N(C)C)cc2)CCCN(CC2CCCCC2)CCCN(S(=O)(=O)N2CCc3cc(Br)ccc3C2)C1 [A60, 4-({5-[(6-bromo-1,2,3,4-tetrahydroisoquinolin-2-yl)sulfonyl]-9-(cyclohexylmethyl)-3-methylidene-1,5,9-triazacyclododecan-1-yl}sulfonyl)-N,N-dimethylaniline]
[1]
  Liver Microsome Stability-% Left after 30 min w/ NADPH (%) Monkey: 38.7%
[2]
  Liver Microsome Stability-% Left after 30 min w/ NADPH (%) Rat: 50.3%
[3]
  pIC50: 7.73
[4]
  pEC50: < 4.60
[5]
  Liver Microsome Stability-% Left after 30 min w/ NADPH (%) Mouse: 60.8%
[6]
  pEC50: 5.83
[7]
  pIC50: 6.05
[8]
  Liver Microsome Stability-% Left after 30 min w/ NADPH (%) Human: 46.7%

## COC1CN(S(=O)(=O)c2ccc(N(C)C)cc2)CCCN(CC2CCCCC2)CCCN(S(=O)(=O)N2CCC(c3ccccc3)CC2)C1 (stereo not shown) [A61, 4-{[9-(cyclohexylmethyl)-3-methoxy-5-[(4-phenylpiperidin-1-yl)sulfonyl]-1,5,9-triazacyclododecan-1-yl]sulfonyl}-N,N-dimethylaniline]
[1]
  Liver Microsome Stability-% Left after 30 min w/ NADPH (%) Monkey: 8.96%
[2]
  Liver Microsome Stability-% Left after 30 min w/ NADPH (%) Rat: 19.6%
[3]
  pIC50: 6.02
[4]
  pEC50: < 4.60
[5]
  Liver Microsome Stability-% Left after 30 min w/ NADPH (%) Mouse: 17.9%
[6]
  pEC50: < 4.60
[7]
  pIC50: < 4.60
[8]
  Liver Microsome Stability-% Left after 30 min w/ NADPH (%) Human: 13.3%

## C=C1CN(S(=O)(=O)c2ccc(N(C)C)cc2)CCCN(CC2CCCCC2)CCCN(S(=O)(=O)N2CCc3cc(-c4ccccc4)ccc3C2)C1 [A63, 4-((9-(cyclohexylmethyl)-3-methylene-5-((6-phenyl-3,4-dihydroisoquinolin-2(1H)-yl)sulfonyl)-1,5,9-triazacyclododecan-1-yl)sulfonyl)-N,N-dimethylaniline]
[1]
  Liver Microsome Stability-% Left after 30 min w/ NADPH (%) Monkey: 84.4%
[2]
  Liver Microsome Stability-% Left after 30 min w/ NADPH (%) Rat: 88.2%
[3]
  pIC50: 7.36
[4]
  pEC50: < 4.60
[5]
  Liver Microsome Stability-% Left after 30 min w/ NADPH (%) Mouse: 85.2%
[6]
  pEC50: 5.13
[7]
  pIC50: 5.73
[8]
  Liver Microsome Stability-% Left after 30 min w/ NADPH (%) Human: 76.4%

## C=C1CN(S(=O)(=O)c2ccc(N(C)C)cc2)CCCN(CC2CCCCC2)CCCN(S(=O)(=O)N2CCC(C3CCCC3)CC2)C1 [A64, 4-{[9-(cyclohexylmethyl)-5-[(4-cyclopentylpiperidin-1-yl)sulfonyl]-3-methylidene-1,5,9-triazacyclododecan-1-yl]sulfonyl}-N,N-dimethylaniline]
[1]
  Liver Microsome Stability-% Left after 30 min w/ NADPH (%) Monkey: 48%
[2]
  Liver Microsome Stability-% Left after 30 min w/ NADPH (%) Rat: 63.1%
[3]
  pIC50: 7.13
[4]
  pEC50: < 4.60
[5]
  Liver Microsome Stability-% Left after 30 min w/ NADPH (%) Mouse: 53.1%
[6]
  pEC50: 5.19
[7]
  pIC50: 5.48
[8]
  Liver Microsome Stability-% Left after 30 min w/ NADPH (%) Human: 53.3%

## C=C1CN(S(=O)(=O)c2ccc(N(C)C)cc2)CCCN(CC2CCCCC2)CCCN(S(=O)(=O)N2CCC(C3CCCCC3)CC2)C1 [A65, 4-{[9-(cyclohexylmethyl)-5-[(4-cyclohexylpiperidin-1-yl)sulfonyl}-3-methylidene-1,5,9-triazacyclododecan-1-yl]sulfonyl}-N,N-dimethylaniline]
[1]
  Liver Microsome Stability-% Left after 30 min w/ NADPH (%) Monkey: 57.8%
[2]
  Liver Microsome Stability-% Left after 30 min w/ NADPH (%) Rat: 78%
[3]
  pIC50: 6.81
[4]
  pEC50: < 4.60
[5]
  Liver Microsome Stability-% Left after 30 min w/ NADPH (%) Mouse: 73.4%
[6]
  pEC50: < 4.60
[7]
  pIC50: 5.06
[8]
  Liver Microsome Stability-% Left after 30 min w/ NADPH (%) Human: 53.1%

## C=C1CN(S(=O)(=O)c2ccc(N(C)C)cc2)CCCN(CC2CCCCC2)CCCN(S(=O)(=O)N2CCC(OC(C)C)CC2)C1 [A66, 4-{[9-(cyclohexylmethyl)-3-methylidene-5-{[4-(propan-2-yloxy)piperidin-1-yl]sulfonyl}-1,5,9-triazacyclododecan-1-yl]sulfonyl}-N,N-dimethylaniline]
[1]
  Liver Microsome Stability-% Left after 30 min w/ NADPH (%) Monkey: 0.35%
[2]
  Liver Microsome Stability-% Left after 30 min w/ NADPH (%) Rat: 0.39%
[3]
  pIC50: 6.73
[4]
  pEC50: < 4.60
[5]
  Liver Microsome Stability-% Left after 30 min w/ NADPH (%) Mouse: 0.02%
[6]
  pEC50: 5.04
[7]
  pIC50: 5.46
[8]
  Liver Microsome Stability-% Left after 30 min w/ NADPH (%) Human: 0.13%

Source: patent publication US11578055B2, “Triazacyclododecansulfonamide (“TCD”)-based protein secretion inhibitors” (KEZAR LIFE SCIENCES, priority 2018, dated 2023)
